Measurements as given in ChEMBL document CHEMBL1201862, “PubChem BioAssay data set” (2004).
Active and inactive are the calls of the source.

Experiments:
HEK293 [1] = assay: cells; type: functional, cell-based; settings: Homo sapiens
[2] = HEK-293T cell viability reduction – luminescence, B-cell screen hits, cytotoxicity control for BCR NF-kB inhibitor project, dose response (AID 489021); type: functional, cell-based;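 note: HEK-293T cells carrying an NF-kB luciferase reporter; cells exposed to compound for about 14 hours before viability readout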
[3] = target: Nucleotide-binding oligomerization domain-containing protein 2 (Homo sapiens, UniProt Q9HC29); assay: inhibition of NOD2-driven NF-kB reporter – cell-based, luminescence, uHTS, HEK293 (AID 1566); type: functional
Nucleotide-binding oligomerization domain-containing protein 2, sequence (Q9HC29 whole entry, the tested form may be a part): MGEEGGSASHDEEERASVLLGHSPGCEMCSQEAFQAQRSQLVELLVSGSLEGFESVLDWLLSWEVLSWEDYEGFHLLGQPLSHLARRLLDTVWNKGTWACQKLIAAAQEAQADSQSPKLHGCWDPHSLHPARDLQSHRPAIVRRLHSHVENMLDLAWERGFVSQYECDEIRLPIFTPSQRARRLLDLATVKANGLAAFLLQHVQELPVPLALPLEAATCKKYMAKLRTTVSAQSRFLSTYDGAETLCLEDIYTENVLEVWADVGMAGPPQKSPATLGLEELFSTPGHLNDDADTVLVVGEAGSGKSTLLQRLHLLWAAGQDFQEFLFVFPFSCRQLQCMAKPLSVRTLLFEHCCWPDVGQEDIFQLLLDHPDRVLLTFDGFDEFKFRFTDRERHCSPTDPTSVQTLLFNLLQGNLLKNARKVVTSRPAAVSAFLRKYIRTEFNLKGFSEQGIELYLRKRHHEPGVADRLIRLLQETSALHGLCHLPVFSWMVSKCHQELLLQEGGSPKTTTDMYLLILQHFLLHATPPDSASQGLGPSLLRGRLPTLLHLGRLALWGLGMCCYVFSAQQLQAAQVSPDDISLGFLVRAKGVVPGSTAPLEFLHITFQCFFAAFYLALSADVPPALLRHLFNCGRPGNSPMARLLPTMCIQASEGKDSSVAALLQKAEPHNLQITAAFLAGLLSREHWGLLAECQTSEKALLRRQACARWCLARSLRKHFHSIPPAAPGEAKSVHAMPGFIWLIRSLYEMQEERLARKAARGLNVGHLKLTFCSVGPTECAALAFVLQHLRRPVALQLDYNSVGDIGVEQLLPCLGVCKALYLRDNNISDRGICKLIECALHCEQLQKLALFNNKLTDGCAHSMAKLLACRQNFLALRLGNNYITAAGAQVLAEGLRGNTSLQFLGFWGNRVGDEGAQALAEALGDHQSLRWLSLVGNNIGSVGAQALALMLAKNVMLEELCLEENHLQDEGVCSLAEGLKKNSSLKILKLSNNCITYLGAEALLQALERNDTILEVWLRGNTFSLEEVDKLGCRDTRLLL

HEK293 [4] = assay: cells; type: functional, cell-based; settings: Homo sapiens; remark: listed apart in the source
[5] = alpha-synuclein stem-loop luciferase translation blockers – H4 neuroglioma cells, luminescence, confirmation (AID 1988); type: functional, cell-based
[6] = Luminescence Cell-Based Dose Response HTS to Identify Inhibitors of 5'UTR Stem-Loop Driven Prion Protein mRNA Translation in H4 Neuroglioblastoma Cells. [Related pubchem assays: 1827 (Project Summary), 1813 (Primary HTS)]; type: functional
[7] = target: T1, Heat shock factor protein 1 (Mus musculus, UniProt P38532); assay: decrease of HSF1-responsive luciferase luminescence – cell-based, NIH3T3, dose retest, confirmation (AID 2382); type: functional;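 note: NIH3T3 fibroblasts with HSF1-driven luciferase reporter stressed by proteasome inhibitor MG132; luminescence from HSF1-driven luciferase expression after 8 hours of MG132 stress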
T1 sequence (P38532 whole entry): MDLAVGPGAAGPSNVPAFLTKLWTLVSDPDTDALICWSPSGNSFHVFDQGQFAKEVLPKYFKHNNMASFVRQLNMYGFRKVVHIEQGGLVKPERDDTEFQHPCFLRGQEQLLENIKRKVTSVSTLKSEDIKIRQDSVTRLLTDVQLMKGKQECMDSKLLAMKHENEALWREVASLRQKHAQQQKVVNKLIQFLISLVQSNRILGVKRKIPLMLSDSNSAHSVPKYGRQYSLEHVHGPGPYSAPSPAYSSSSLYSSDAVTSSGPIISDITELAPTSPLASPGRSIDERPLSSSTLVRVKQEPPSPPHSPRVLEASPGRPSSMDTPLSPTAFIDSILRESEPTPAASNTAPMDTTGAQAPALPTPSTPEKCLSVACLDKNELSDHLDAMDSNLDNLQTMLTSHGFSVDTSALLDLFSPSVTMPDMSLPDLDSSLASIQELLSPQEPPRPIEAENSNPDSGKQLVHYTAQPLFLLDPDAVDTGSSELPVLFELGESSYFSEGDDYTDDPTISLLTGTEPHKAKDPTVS

HEK293 [8] = assay: inhibition of NOD1-driven NF-kB reporter – cell-based, luminescence, uHTS, primary screen (AID 1578); type: functional; settings: Homo sapiens
[9] = luciferase reporter signal suppression in cells – H4 neuroglioma cells, luminescence, dose response (AID 1990); type: functional, cell-based
HEK293 [10] = assay: cells; type: functional, cell-based; settings: Homo sapiens; remark: listed apart in the source
HEK293 [11] = assay: NOD2 signaling inhibitors in MDP-stimulated cells, cell-based, uHTS, luminescence (AID 2001); type: functional; settings: Homo sapiens
Aminopeptidase N = target: T2, Aminopeptidase N (Plasmodium falciparum FcB1/Columbia, UniProt O96935); assay: malaria alanyl aminopeptidase activity blockers – biochemical, fluorogenic H-Leu-NHMec substrate, 1536-well (AID 1445); parameters: species or system Plasmodium falciparum 3D7, 3D7
T2 sequence (O96935 whole entry): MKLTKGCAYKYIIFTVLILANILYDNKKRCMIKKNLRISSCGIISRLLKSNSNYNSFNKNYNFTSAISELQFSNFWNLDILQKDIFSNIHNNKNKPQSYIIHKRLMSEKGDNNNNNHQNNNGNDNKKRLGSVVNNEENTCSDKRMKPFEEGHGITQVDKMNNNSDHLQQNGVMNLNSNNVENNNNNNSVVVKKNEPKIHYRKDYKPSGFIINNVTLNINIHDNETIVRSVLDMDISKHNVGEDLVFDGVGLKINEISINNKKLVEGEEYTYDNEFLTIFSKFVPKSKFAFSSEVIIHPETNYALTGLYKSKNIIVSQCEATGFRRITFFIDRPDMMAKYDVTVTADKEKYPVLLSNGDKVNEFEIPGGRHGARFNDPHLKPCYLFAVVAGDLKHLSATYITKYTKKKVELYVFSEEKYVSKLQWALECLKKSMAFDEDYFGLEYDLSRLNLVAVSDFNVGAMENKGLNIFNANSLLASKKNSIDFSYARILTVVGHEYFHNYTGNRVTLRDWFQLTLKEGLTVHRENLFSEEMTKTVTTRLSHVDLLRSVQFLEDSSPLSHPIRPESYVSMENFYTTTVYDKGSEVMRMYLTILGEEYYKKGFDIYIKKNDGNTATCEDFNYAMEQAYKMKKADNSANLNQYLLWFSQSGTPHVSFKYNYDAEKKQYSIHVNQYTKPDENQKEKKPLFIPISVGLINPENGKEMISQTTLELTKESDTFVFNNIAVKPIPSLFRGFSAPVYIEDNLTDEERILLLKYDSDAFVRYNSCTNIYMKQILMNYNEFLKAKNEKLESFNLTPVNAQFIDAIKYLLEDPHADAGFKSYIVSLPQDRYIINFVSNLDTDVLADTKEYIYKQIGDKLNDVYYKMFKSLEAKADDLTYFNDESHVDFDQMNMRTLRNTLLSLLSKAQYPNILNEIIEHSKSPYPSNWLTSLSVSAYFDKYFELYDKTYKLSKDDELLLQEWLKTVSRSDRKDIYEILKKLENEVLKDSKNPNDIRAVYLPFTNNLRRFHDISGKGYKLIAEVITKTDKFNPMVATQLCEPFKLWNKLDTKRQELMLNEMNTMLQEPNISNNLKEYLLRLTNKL

[12] = target: Dual specificity tyrosine-phosphorylation-regulated kinase 1A (Rattus norvegicus, UniProt Q63470); type: biochemical, Homo sapiens
[13] = HPDE-C7 pancreatic duct cell viability loss – fluorescence, HTS (AID 430); type: functional, cell-based; settings: Homo sapiens
[14] = viability loss of HPDE-C7K cells – cell-based, fluorescence, HTS, primary screen (AID 431); type: functional; settings: Homo sapiens
Vero = assay: cells; type: functional; settings: Chlorocebus sabaeus
[15] = target: T3, Apoptotic protease-activating factor 1 (Homo sapiens, UniProt O14727); type: functional
T3 sequence (O14727 whole entry): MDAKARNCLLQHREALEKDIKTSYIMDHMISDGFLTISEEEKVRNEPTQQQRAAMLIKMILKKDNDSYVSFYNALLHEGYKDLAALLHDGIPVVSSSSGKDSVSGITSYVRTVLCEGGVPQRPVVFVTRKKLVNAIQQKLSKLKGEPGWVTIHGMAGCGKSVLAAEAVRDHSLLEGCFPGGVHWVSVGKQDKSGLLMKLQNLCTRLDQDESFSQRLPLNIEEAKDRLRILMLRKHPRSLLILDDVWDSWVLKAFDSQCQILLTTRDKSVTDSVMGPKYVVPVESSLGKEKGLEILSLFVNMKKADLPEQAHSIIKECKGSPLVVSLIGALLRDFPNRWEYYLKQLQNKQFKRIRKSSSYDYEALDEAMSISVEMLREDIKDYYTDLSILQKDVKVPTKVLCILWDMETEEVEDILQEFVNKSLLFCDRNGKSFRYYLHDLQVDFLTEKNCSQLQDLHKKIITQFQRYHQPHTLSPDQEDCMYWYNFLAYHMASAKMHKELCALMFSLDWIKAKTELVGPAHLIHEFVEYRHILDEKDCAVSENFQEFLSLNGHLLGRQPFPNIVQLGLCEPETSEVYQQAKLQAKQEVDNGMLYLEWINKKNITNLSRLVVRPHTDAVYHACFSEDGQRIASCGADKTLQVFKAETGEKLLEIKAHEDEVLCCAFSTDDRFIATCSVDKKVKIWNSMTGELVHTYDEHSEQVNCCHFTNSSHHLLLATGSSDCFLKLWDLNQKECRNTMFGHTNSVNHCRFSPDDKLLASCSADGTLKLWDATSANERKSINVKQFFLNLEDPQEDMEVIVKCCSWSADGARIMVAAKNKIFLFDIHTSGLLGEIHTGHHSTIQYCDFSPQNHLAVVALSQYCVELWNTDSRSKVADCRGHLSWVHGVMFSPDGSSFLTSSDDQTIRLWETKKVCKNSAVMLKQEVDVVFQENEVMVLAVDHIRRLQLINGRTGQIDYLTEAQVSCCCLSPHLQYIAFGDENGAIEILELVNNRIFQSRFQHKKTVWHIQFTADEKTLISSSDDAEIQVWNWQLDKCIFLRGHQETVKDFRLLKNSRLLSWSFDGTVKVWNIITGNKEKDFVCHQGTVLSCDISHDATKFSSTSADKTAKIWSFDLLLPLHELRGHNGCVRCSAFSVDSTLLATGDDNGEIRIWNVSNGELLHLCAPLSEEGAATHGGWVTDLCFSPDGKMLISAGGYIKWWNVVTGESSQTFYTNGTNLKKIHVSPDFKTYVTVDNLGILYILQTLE

[16] = target: DNA dC->dU-editing enzyme APOBEC-3G (Homo sapiens, UniProt Q9HC16); type: functional;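 note: Dose-response counterscreen measuring inhibition of APOBEC3G DNA deaminase activity, run while confirming APOBEC3A inhibitors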
DNA dC->dU-editing enzyme APOBEC-3G, sequence (Q9HC16 whole entry): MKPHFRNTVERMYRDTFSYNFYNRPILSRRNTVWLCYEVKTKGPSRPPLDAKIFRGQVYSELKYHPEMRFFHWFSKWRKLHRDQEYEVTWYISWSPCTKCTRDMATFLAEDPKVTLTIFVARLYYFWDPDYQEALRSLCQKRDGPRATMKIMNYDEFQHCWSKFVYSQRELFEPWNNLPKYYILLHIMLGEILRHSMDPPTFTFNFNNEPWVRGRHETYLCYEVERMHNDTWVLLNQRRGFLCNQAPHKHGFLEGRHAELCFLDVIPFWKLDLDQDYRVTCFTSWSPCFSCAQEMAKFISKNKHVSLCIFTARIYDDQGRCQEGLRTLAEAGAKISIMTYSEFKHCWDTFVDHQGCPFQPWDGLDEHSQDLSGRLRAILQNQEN

[17] = target: DNA dC->dU-editing enzyme APOBEC-3A (Homo sapiens, UniProt P31941); assay: Dose Response confirmation of small molecule APOBEC3A DNA Deaminase Inhibitors via a fluorescence-based single-stranded DNA deaminase assay. [Related pubchem assays (depositor defined):AID493011, AID493024]; type: functional
DNA dC->dU-editing enzyme APOBEC-3A, sequence (P31941 whole entry): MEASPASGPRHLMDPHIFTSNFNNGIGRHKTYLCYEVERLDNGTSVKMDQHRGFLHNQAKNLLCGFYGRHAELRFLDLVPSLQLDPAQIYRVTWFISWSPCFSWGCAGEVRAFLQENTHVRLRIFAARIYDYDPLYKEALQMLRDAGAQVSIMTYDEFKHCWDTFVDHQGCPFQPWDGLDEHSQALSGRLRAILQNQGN

Estrogen receptor = target: T4, Estrogen receptor (Homo sapiens, UniProt P03372);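 note: potency for inhibiting coactivator peptide recruitment to the receptor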
T4 sequence (P03372 whole entry): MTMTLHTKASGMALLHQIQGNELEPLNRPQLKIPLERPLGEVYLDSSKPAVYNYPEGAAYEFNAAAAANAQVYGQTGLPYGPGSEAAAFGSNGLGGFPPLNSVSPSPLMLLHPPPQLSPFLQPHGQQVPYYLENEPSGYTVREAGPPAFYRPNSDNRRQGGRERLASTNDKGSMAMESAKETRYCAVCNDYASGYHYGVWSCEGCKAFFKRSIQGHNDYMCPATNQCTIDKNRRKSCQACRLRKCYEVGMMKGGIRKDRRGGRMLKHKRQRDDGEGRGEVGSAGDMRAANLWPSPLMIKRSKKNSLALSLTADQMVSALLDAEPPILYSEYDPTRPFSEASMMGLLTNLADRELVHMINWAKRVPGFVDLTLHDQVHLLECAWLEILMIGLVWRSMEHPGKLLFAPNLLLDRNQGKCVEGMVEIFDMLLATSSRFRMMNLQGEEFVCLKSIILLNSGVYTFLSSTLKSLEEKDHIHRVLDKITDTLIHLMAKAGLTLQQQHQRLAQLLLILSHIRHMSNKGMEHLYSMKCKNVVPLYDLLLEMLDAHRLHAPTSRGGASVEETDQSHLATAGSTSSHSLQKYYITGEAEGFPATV

INS1 = assay: INS-1E survival protection against cytokine death – cell-based, luminescence, retest, dose response (AID 449756); type: functional; settings: Rattus norvegicus;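 note: cell death triggered by IL-1 beta plus TNF-alpha plus IFN-gamma mixture; protective hits raise ATP signal compared with cytokine alone wells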
[18] = Luminescence Cell-Based Dose Retest to Confirm Inhibitors of Cancer Stem Cells. [Related pubchem assays (depositor defined):AID2717, AID2721]; type: functional; settings: Homo sapiens

Structure (SMILES): O=C(O)CCSc1ncnc2sc(-c3ccccc3)cc12
- IC50 (HEK293 [1]): > 20 µM (inactive)
- IC50 [2]: > 80 µM (inactive)
- EC50 [3]: 4.19 µM (active)
- IC50 (HEK293 [4]): > 20 µM (inactive)
- EC50 [5]: 4.68 µM (active)
- EC50 [6]: 9.35 µM (active)
- EC50 [7]: 0.643 µM (active)
- EC50 (HEK293 [8]): 7.39 µM (active)
- EC50 [9]: 4.36 µM (active)
- IC50 (HEK293 [10]): 1.54 µM (active)
- IC50 (HEK293 [11]): 3.59 µM (active)

Structure (SMILES): COc1ccc2cc3cc(C(=O)NCC4CCCO4)oc3nc2c1 (centres undefined)
- IC50 (Aminopeptidase N): 79.3 µM (active)
- AC50 [12]: 7.86 µM (active)

Structure (SMILES): O=C(Nc1ccc2nn(-c3ccccc3)nc2c1)c1ccc2c(c1)OCCO2
- IC50 (HEK293 [1]): > 20 µM (inactive)
- EC50 [13]: > 20 µM (not active)
- EC50 [3]: > 20 µM (inactive)
- IC50 (HEK293 [4]): > 20 µM (inactive)
- EC50 (HEK293 [8]): > 20 µM (inactive)
- EC50 [14]: > 20 µM (not active)
- IC50 (HEK293 [10]): 5.31 µM (active)
- IC50 (HEK293 [11]): 8.39 µM (active)

Structure (SMILES): Cc1ccc(-c2nn3c(C)nnc3c3ccccc23)cc1S(=O)(=O)NCc1ccco1
- IC50 [2]: > 80 µM (inactive)
- CC50 (Vero): 3.28 µM (active)
- IC50 [15]: 15.2 µM (active)

Structure (SMILES): CC(=O)Nc1nnc(SCc2ccc(C(=O)Nc3ccccc3F)cc2)s1
- IC50 [16]: 6.06 µM (active)
- IC50 [17]: 5.85 µM (active)

Structure (SMILES): COc1ccc(-c2csc3nc(-c4cccnc4)nc(N4CCC(C(N)=O)CC4)c23)cc1OC
- IC50 [2]: 43.7 µM (inactive)

Structure (SMILES): Cn1c(SCC(=O)Nc2ccc3c(c2)oc2ccccc23)nnc1-c1ccccc1
- IC50 (Estrogen receptor): > 50 µM (not active)
- IC50 [16]: 6.7 µM (active)
- IC50 [17]: 5.4 µM (active)

Structure (SMILES): COc1cc(NC(=O)c2cc3ccccc3cc2O)c(OC)cc1Cl
- AC50 (INS1): 4.03 µM (active)
- IC50 (HEK293 [1]): 14 µM (active)
- EC50 [3]: 5.66 µM (active)
- AC50 [18]: 0.612 µM (active)
- IC50 (HEK293 [4]): > 20 µM (inactive)
- EC50 (HEK293 [8]): 4.15 µM (active)
- IC50 (HEK293 [10]): > 20 µM (inactive)
- IC50 (HEK293 [11]): 4.06 µM (inactive)

Structure (SMILES): CC1(C)Oc2ccc3ccc(=O)oc3c2C(/C=N/CCO)=C1O
- IC50 [16]: 6.83 µM (active)
- IC50 [17]: 2.47 µM (active)

Structure (SMILES): C[N+]1(CCCCCCC(=O)C=NO)CCCCCC1
- IC50 [16]: 3.9 µM (active)
- IC50 [17]: 4.03 µM (active)

Structure (SMILES): COC(=O)Cc1cc(=O)oc2cc(O)ccc12
- IC50 (Aminopeptidase N): 36.6 µM (active)

Structure (SMILES): C/C(=N\Nc1nc(Nc2ccccc2)nc(N2CCOCC2)n1)c1cccs1
- IC50 [2]: > 80 µM (inactive)
